Here are results for 71 compounds from ChEMBL document CHEMBL3879915, “Methods of inhibiting PRMT5” (2014).

For this assay, the target named is PRMT5/MEP50 complex (Homo sapiens, UniProt O14744). The assay can be described thus: Inhibition of recombinant human fetal brain FLAG-tagged PRMT5/full length human testis 6His-tagged MEP50 expressed in baculovirus infected insect Sf9 cells using human histone H4 (1 to 15 residues) as substrate preincubated for 30 mins followed by [3H]-SAM addition.
PRMT5/MEP50 complex, sequence (O14744 whole entry, the tested form may be a part): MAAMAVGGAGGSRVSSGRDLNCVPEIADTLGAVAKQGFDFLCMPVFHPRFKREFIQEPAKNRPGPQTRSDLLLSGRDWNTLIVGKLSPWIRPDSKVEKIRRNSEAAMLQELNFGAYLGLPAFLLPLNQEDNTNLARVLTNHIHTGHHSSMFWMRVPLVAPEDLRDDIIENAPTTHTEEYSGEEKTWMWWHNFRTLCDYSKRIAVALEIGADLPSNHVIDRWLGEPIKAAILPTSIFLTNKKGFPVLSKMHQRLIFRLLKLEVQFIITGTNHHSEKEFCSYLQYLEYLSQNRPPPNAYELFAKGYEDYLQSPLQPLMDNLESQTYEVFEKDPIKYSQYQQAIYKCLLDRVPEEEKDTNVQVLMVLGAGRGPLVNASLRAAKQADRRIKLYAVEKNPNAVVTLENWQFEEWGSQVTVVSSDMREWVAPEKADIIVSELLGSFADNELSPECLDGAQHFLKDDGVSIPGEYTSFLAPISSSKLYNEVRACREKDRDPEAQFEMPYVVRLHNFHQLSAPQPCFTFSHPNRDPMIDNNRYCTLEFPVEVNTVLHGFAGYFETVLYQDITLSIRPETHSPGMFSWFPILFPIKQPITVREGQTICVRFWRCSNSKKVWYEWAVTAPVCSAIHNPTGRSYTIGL
PRMT5/MEP50 complex, sequence (Q9BQA1 whole entry, further chain, the tested form may be a part): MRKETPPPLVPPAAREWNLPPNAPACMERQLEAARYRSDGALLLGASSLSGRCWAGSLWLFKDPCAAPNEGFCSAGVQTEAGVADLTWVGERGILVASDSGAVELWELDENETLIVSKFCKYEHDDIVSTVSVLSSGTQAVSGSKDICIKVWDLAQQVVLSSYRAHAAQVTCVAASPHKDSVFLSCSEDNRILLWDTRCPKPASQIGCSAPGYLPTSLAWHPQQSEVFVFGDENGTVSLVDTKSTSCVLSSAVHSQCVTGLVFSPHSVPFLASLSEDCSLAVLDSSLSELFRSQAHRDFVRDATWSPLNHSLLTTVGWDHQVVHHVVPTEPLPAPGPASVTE
In the case of `O=C1CN(Cc2ccccn2)CCN1CC(O)CN1CCc2ccccc2C1` (stereo unspecified), the IC50 was in the range of 1000 to 10000 nM.

As for `O=C(NCC(O)CN1CCc2ccccc2C1)c1cc(NC2CCOCC2)ccn1` (stereo unspecified), the half-maximal inhibitory concentration (IC50) was under 100 nM.

Take `CC(=O)N1CCN(CC(O)CN2CCc3ccccc3C2)C(=O)C1` (stereo unspecified): the IC50 is 1000 to 10000 nM.

Turning to `Nc1ncccc1OCC(=O)NCC(O)CN1CCc2ccccc2C1` (stereo unspecified), the IC50 lay within 1000 to 10000 nM.

In the case of `CC(C)(C)OC(=O)Nc1ccccc1OCC(=O)NCC(O)CN1CCc2ccccc2C1` (stereo unspecified), the IC50 is 1000 to 10000 nM.

Regarding `O=C1CC(c2ccccc2)CCN1C[C@H](O)CN1CCc2ccccc2C1` (stereo partly specified), the IC50 was 1000 to 10000 nM.

`CS(=O)(=O)Nc1cccnc1OCC(=O)NCC(O)CN1CCc2ccccc2C1` (stereo unspecified): the IC50 fell in the range of 1000 to 10000 nM.

With `O=C(COc1ccc(F)cc1)NCC(O)CN1CCc2ccccc2C1` (stereo unspecified), the concentration for half-maximal inhibition (IC50) lay within 1000 to 10000 nM.

Consider `O=C1CN(Cc2ccccc2)CCN1CC(O)CN1CCc2ccccc2C1` (stereo unspecified), for which the IC50 lay within 1000 to 10000 nM.

Regarding `O=C(NCC(O)CN1CCc2ccccc2C1)c1cccc(C(=O)N2CCOCC2)c1` (stereo unspecified), the IC50 lay in the range of 1000 to 10000 nM.

As for `CS(=O)(=O)c1ccc(OCC(=O)NCC(O)CN2CCc3ccccc3C2)cc1` (stereo unspecified), the IC50 was in the range of 1000 to 10000 nM.

As for `CN(C)c1cncc(OCC(=O)NCC(O)CN2CCc3ccccc3C2)c1` (stereo unspecified), the IC50 fell in the range of 1000 to 10000 nM.

Turning to `O=C(COc1cccc(NC2CCOCC2)n1)NCC(O)CN1CCc2ccccc2C1` (stereo unspecified), the IC50 is 1000 to 10000 nM.

On to `CC(=O)Nc1cncc(OCC(=O)NCC(O)CN2CCc3ccccc3C2)c1` (stereo unspecified), for which the IC50 is over 10000 nM.

For `O=C(COC1CCOCC1)NCC(O)CN1CCc2ccccc2C1` (stereo unspecified), the IC50 fell in the range of 1000 to 10000 nM.

Regarding `O=C(COc1ccccc1OCCN1CCOCC1)NC[C@@H](O)CN1CCc2ccccc2C1`, the IC50 lay in the range of 1000 to 10000 nM.

In the case of `O=C(NCC(O)CN1CCc2ccccc2C1)c1ccc(OC2CCOCC2)cc1` (stereo unspecified), the IC50 is under 100 nM.

For the compound `O=C(COc1ccccc1-c1c[nH]cn1)NCC(O)CN1CCc2ccccc2C1` (stereo unspecified), the IC50 lay in the range of 10000 to 50000 nM.

As for `O=C(COc1ccccc1)NC[C@@H](O)CN1CCc2ccccc2C1`, the 50% inhibitory concentration (IC50) was in the range of 1000 to 10000 nM.

For the compound `O=C1CC(c2ccccc2)CCN1C[C@@H](O)CN1CCc2ccccc2C1` (stereo partly specified), the IC50 lay in the range of 1000 to 10000 nM.

Consider `O=c1cc(Nc2ccccc2)ccn1C[C@H](O)CN1CCc2ccccc2C1`, for which the IC50 is 1000 to 10000 nM.

As to `O=C1COCCN1CC(O)CN1CCc2ccccc2C1` (stereo unspecified), the IC50 lay within 1000 to 10000 nM.

In the case of `O=C(NC[C@@H](O)CN1CCc2ccccc2C1)c1ccccc1`, the IC50 is 1000 to 10000 nM.

Regarding `CN1CCC(c2ccccc2OCC(=O)NCC(O)CN2CCc3ccccc3C2)C1` (stereo unspecified), the IC50 fell in the range of 1000 to 10000 nM.

With `O=C(COc1cccc2[nH]c(=O)cnc12)NCC(O)CN1CCc2ccccc2C1` (stereo unspecified), the IC50 lay within 1000 to 10000 nM.

For `CS(=O)(=O)Nc1ccccc1C(=O)NCC(O)CN1CCc2ccccc2C1` (stereo unspecified), the IC50 was in the range of 1000 to 10000 nM.

With `OC(COC1CCCN(c2ccccc2)C1)CN1CCc2ccccc2C1` (stereo unspecified), the IC50 was 1000 to 10000 nM.

Consider `COc1cc(NC2CCOCC2)cc(C(=O)NCC(O)CN2CCc3ccccc3C2)c1` (stereo unspecified), for which the IC50 was in the range of 101 to 1000 nM.

Take `O=C1CN(Cc2cccnc2)CCN1CC(O)CN1CCc2ccccc2C1` (stereo unspecified): the IC50 was in the range of 1000 to 10000 nM.

For the compound `O=C(Cc1ccccc1)NC[C@@H](O)CN1CCc2ccccc2C1`, the IC50 fell in the range of 10000 to 50000 nM.

In the case of `OC(COc1ccc(OCC(O)CN2CCc3ccccc3C2)cc1)CN1CCc2ccccc2C1` (stereo unspecified), the IC50 is 101 to 1000 nM.

On to `O=C(NCC(O)CN1CCc2ccccc2C1)c1cc(NC2CCOCC2)ccc1F` (stereo unspecified), for which the IC50 lay in the range of 101 to 1000 nM.

`O=C(CC1CCCCC1)NC[C@H](O)CN1CCc2ccccc2C1`: the IC50 was in the range of 1000 to 10000 nM.

For `NS(=O)(=O)c1cccc(OCC(=O)NCC(O)CN2CCc3ccccc3C2)c1` (stereo unspecified), the IC50 lay within 1000 to 10000 nM.

Take `O=C(COc1ccccc1C1CNC1)NCC(O)CN1CCc2ccccc2C1` (stereo unspecified): the concentration for half-maximal inhibition (IC50) is 1000 to 10000 nM.

For `O=C1CN(C2CCOCC2)CCN1CC(O)CN1CCc2ccccc2C1` (stereo unspecified), the IC50 was in the range of 1000 to 10000 nM.

With `C[C@H](Oc1cccc2cccnc12)C(=O)NC[C@@H](O)CN1CCc2ccccc2C1`, the IC50 lay in the range of 1000 to 10000 nM.

As to `CN(CC(O)CN1CCc2ccccc2C1)C(=O)CCc1ccccc1` (stereo unspecified), the IC50 lay in the range of 1000 to 10000 nM.

With `O=C(COC1CCCCC1)NCC(O)CN1CCc2ccccc2C1` (stereo unspecified), the IC50 is 101 to 1000 nM.

Regarding `CS(=O)(=O)N1CCN(CC(O)CN2CCc3ccccc3C2)C(=O)C1` (stereo unspecified), the IC50 is 1000 to 10000 nM.

As to `CC(C)(Oc1ccccc1)C(=O)NCC(O)CN1CCc2ccccc2C1` (stereo unspecified), the IC50 lay within 101 to 1000 nM.

With `CC(Nc1cccc(C(=O)NCC(O)CN2CCc3ccccc3C2)c1)C1CCOCC1` (stereo unspecified), the IC50 is 101 to 1000 nM.

Consider `CC1(C)CC(Nc2cccc(C(=O)NCC(O)CN3CCc4ccccc4C3)c2)CCO1` (stereo unspecified), for which the IC50 lay within 101 to 1000 nM.

Regarding `CC(=O)Nc1ncccc1OCC(=O)NCC(O)CN1CCc2ccccc2C1` (stereo unspecified), the IC50 is over 10000 nM.

In the case of `CN(C)c1cccnc1OCC(=O)NCC(O)CN1CCc2ccccc2C1` (stereo unspecified), the IC50 was over 10000 nM.

On to `Cc1cccc(N2CCN(CC(O)CN3CCc4ccccc4C3)C(=O)C2)c1` (stereo unspecified), for which the IC50 fell in the range of 10000 to 50000 nM.

As for `O=c1cccc(CC(O)CN2CCc3ccccc3C2)[nH]1` (stereo unspecified), the IC50 lay in the range of 10000 to 50000 nM.

Consider `O=C(COc1cccc2cccnc12)NCC(O)CN1Cc2ccccc2C(F)(F)C1` (stereo unspecified), for which the IC50 was over 10000 nM.

Take `CN1CCN(CC(O)CN2CCc3ccccc3C2)C(=O)C1` (stereo unspecified): the IC50 was over 50000 nM.

As to `O=C(Cc1ccccc1)NC[C@H](O)CN1CCc2ccccc2C1`, the IC50 was 101 to 1000 nM.

In the case of `O=C(CCc1ccccc1)NCC(O)CN1CCc2ccccc2C1` (stereo unspecified), the IC50 fell in the range of 1000 to 10000 nM.

As for `CN(c1cccc(C(=O)NCC(O)CN2CCc3ccccc3C2)c1)C1CCOCC1` (stereo unspecified), the IC50 was in the range of 101 to 1000 nM.

As to `O=C(COc1cccc2c1CCCN2)NCC(O)CN1CCc2ccccc2C1` (stereo unspecified), the IC50 was 101 to 1000 nM.

Regarding `NS(=O)(=O)c1ccccc1C(=O)NCC(O)CN1CCc2ccccc2C1` (stereo unspecified), the IC50 is 1000 to 10000 nM.

For the compound `CC(=O)Nc1cccnc1OCC(=O)NCC(O)CN1CCc2ccccc2C1` (stereo unspecified), the IC50 is over 50000 nM.

For `CC(Oc1ccccc1S(N)(=O)=O)C(=O)NCC(O)CN1CCc2ccccc2C1` (stereo unspecified), the IC50 was over 50000 nM.

Turning to `NS(=O)(=O)c1ccc(OCC(=O)NCC(O)CN2CCc3ccccc3C2)cc1` (stereo unspecified), the IC50 was 1000 to 10000 nM.

In the case of `CN(CC(O)CN1CCc2ccccc2C1)C(=O)COc1ccccc1` (stereo unspecified), the IC50 lay within 10000 to 50000 nM.

Consider `O=C(CC1CCCCC1)NC[C@@H](O)CN1CCc2ccccc2C1`, for which the IC50 fell in the range of 10000 to 50000 nM.

For `O=C(Cc1ccncc1)NCC(O)CN1CCc2ccccc2C1` (stereo unspecified), the IC50 was 10000 to 50000 nM.

Turning to `CS(=O)(=O)Nc1ncccc1OCC(=O)NCC(O)CN1CCc2ccccc2C1` (stereo unspecified), the half-maximal inhibitory concentration (IC50) was over 10000 nM.

For `O=C(NCC(O)CN1CCc2ccccc2C1)c1cccc(NC2COC2)c1` (stereo unspecified), the IC50 is 101 to 1000 nM.

Regarding `O=C(NC[C@H](O)CN1CCc2ccccc2C1)Oc1ccccc1`, the IC50 was 1000 to 10000 nM.

`CN(C)c1ccc(N2CCN(C[C@H](O)CN3CCc4ccccc4C3)C(=O)C2)cc1`: the IC50 lay in the range of 1000 to 10000 nM.

`O=C(NCC(O)CN1CCc2ccccc2C1)c1cccc(CN2CCOCC2)c1` (stereo unspecified): the IC50 was 101 to 1000 nM.

With `O=C(NC[C@@H](O)CN1CCc2ccccc2C1)Nc1ccccc1`, the IC50 lay within 1000 to 10000 nM.

Regarding `O=C(NC1CCOCC1)C1CC(=O)N(CC(O)CN2CCc3ccccc3C2)C1` (stereo unspecified), the IC50 was over 10000 nM.

Consider `O=C(NCC(O)CN1CCc2ccccc2C1)c1cncc(NC2CCOCC2)c1` (stereo unspecified), for which the IC50 was under 100 nM.

In the case of `NC(=O)c1ccc(OCC(=O)NCC(O)CN2CCc3ccccc3C2)cc1` (stereo unspecified), the IC50 is 1000 to 10000 nM.

As to `CN1CC(c2ccccc2OCC(=O)NCC(O)CN2CCc3ccccc3C2)C1` (stereo unspecified), the IC50 was in the range of 1000 to 10000 nM.

As for `O=C(COc1cccc2c1CCCN2Cc1ccccc1)NCC(O)CN1CCc2ccccc2C1` (stereo unspecified), the IC50 was under 100 nM.
